Experimental data published in patent US6362190B1, “Method for treating inflammatory diseases by administering a thrombin inhibitor” (Merck & Co., Inc., priority 1998, dated 2002).

Tested on: adjuvant-induced arthritis (Mycobacterium butyricum) in female Lewis rats
Test: Development and severity of adjuvant-induced arthritis in female Lewis rats (paw volumes, radiographic scores)
Assay type: in vivo
Settings: for Radiographic total scores of secondary paws compared with vehicle treated rats, in words: day 21, secondary paws; for Radiographic scores, Primary paws / Radiographic scores, Secondary paws / Increase in primary foot volume, Day 21 / Increase in secondary foot volume, Day 21: day 21; for Radiographic scores, Primary paws / Radiographic scores, Secondary paws: total score, maximum 26 per foot, high score = high inflammation, thrombin inhibitor 50 mg/kg/day, Indomethacin 1 mg/kg/day oral; for Increase in primary foot volume, Day 14 / Increase in primary foot volume, Day 21: primary (adjuvant-injected) paw; for Increase in primary foot volume, Day 14 / Increase in primary foot volume, Day 21 / Increase in secondary foot volume, Day 14 / Increase in secondary foot volume, Day 21: oral gavage daily, thrombin inhibitor 50 mg/kg, Indomethacin 1 mg/kg; for Increase in primary foot volume, Day 14: mercury displacement plethysmography; for Increase in secondary foot volume, Day 14 / Increase in secondary foot volume, Day 21: secondary (contralateral, not injected) paw
Description: The thrombin inhibitor 3-(2-phenylethylamino)-6-methyl-1-(2-amino-6-methyl-5-methylene-carboxamidomethylpyridinyl)-2-pyrazinone was evaluated to determine its effect on induced arthritis. Arthritis was induced by injection of female Lewis rats with Mycobacterium butyricum. The effect of the thrombin inhibitor was compared with the effect of Indomethacin and the effect of a vehicle control.
Fifty 7.5 week old female Lewis rats (body weight 149-174 grams) were included in the study. Forty rats were each injected with an emulsion containing 0.5 mg of Mycobacterium butyricum in 0.1 ml of light mineral oil, and a negative control group of 10 rats was not injected with adjuvant.
Ten of the rats receiving Mycobacterium butyricum further received Indomethacin by oral gavage at a total daily dose of 1 mg/kg. Ten of the rats receiving Mycobacterium butyricum further received the thrombin inhibitor by oral gavage at a total daily dose of 50 mg/kg. Twenty of the rats receiving Mycobacterium butyricum further received a vehicle control of sterile distilled water.
Body weights, primary and secondary paw volumes, and lateral radiographs were determined before and at various time points including 21 days following adjuvant injection. The primary paw was injected with the Mycobacterium butyricum while the secondary (contralateral) paw was not injected. Paw volumes were determined by mercury displacement plethysmography. Lateral radiographs were obtained under Ketamine and Xylazine anesthesia.
Radiographs were made of both hind paws on days 0 and 21 and evaluated for changes in the soft and hard tissues. The following radiographic changes were graded numerically according to severity:increased soft tissue volume (0-4), narrowing or widening of joint spaces ([…]), subchondral erosion (0-3), periosteal reaction (0-4), osteolysis (0-4), subluxation (0-3), and degenerative joint changes (0-3). The maximum possible score for each foot was 26. High scores correspond with high levels of inflammation.

Cc1nc(N)ccc1CNC(=O)Cn1c(C)cnc(NCCc2ccccc2)c1=O [Thrombin inhibitor, 3-(2-phenylethylamino)-6-methyl-1-(2-amino-6-methyl-5-methylene-carboxamidomethylpyridinyl)-2-pyrazinone]
Radiographic total scores of secondary paws compared with vehicle treated rats, in words (versus vehicle): significantly less
Radiographic scores, Primary paws: 14.0 ± 3.3
Radiographic scores, Secondary paws: 3.8 ± 3.79
Increase in primary foot volume, Day 14: 1591 ± 318 µL
Increase in primary foot volume, Day 21: 1997 ± 605 µL
Effect on the primary paw (foot volume), in words (primary paw, thrombin inhibitor 50 mg/kg/day oral gavage): insignificant effect
Increase in secondary foot volume, Day 14: 382 ± 312 µL
Increase in secondary foot volume, Day 21: 704 ± 289 µL
Anti-inflammatory effect on the secondary paw (foot volume), in words (secondary paw, thrombin inhibitor 50 mg/kg/day oral gavage): significant anti-inflammatory effect

COc1ccc2c(c1)c(CC(=O)O)c(C)n2C(=O)c1ccc(Cl)cc1 [Indomethacin, reference compound]
Radiographic total scores of primary paws compared with vehicle treated rats, in words (day 21, primary paws, versus vehicle): significantly less
Radiographic total scores of secondary paws compared with vehicle treated rats, in words (versus vehicle): significantly less
Radiographic scores, Primary paws: 4.6 ± 1.6
Radiographic scores, Secondary paws: 3.5 ± 1.4
Increase in primary foot volume, Day 14: 726 ± 174 µL
Increase in primary foot volume, Day 21: 622 ± 156 µL
Increase in secondary foot volume, Day 14: 246 ± 162 µL
Increase in secondary foot volume, Day 21: 253 ± 138 µL
